{"source": "patent US20170081331A1", "about": "“Pyrazolopyrazines and their use in the treatment, amelioration or prevention of a viral disease” (F. Hoffmann-La Roche AG, priority 2015, published 2017)"}
{"biological_target": "T1, influenza A virus (IAV) PA-Nter fragment (amino acids 1-209) (Influenza A virus, UniProt P31343)", "T1 construct": "PA-Nter fragment (amino acids 1-209); made in house", "experiment": "FRET endonuclease activity assay", "format": "biochemical", "details": "PA-Nter 0.5 μM, 1.6 μM RNA substrate; from initial reaction velocities (v0)", "units": {"IC50": "µM"}}
{"smiles": "CC(C)N1CCn2c(c(O)c(=O)n2Cc2ccccc2)C1=O", "IC50": 12.4}
{"smiles": "CC(C)N1CCn2[nH]c(=O)c(O)c2C1=O", "IC50": 1.31}
{"smiles": "CC(C)N1CCn2c(c(O)c(=O)n2CCc2ccccc2)C1=O", "IC50": 7.54}
{"smiles": "CC(C)N1CC(C)n2c(c(O)c(=O)n2Cc2ccccc2)C1=O", "note": "(stereo not shown)", "IC50": 2.63}
{"biological_target": "whole RNP complex of IAV strain A/PR/8/34 (Influenza A virus, UniProt P03433)", "experiment": "Transcription assay (TA assay), Quantigene detection of de novo viral mRNA", "format": "biochemical, influenza A virus A/PR/8/34", "details": "80 pM RNPs, 2 nM capped RNA substrate, cell-free; read-out: TA IC50 (unit inferred)", "units": {"IC50": "µM"}}
{"smiles": "COC(=O)c1nn2c(c1O)C(=O)N(C(C)C)CC2", "IC50": 79.6}
{"biological_target": "whole RNP complex of IAV strain A/PR/8/34 (Influenza A virus, UniProt P03433)", "experiment": "Transcription assay (TA assay), Quantigene detection of de novo viral mRNA", "format": "biochemical, influenza A virus A/PR/8/34", "details": "80 pM RNPs, 2 nM capped RNA substrate, cell-free; read-out: TA assay IC50", "units": {"IC50": "µM"}}
{"smiles": "CC(C)N1CC(c2ccccc2)n2c(c(O)c(=O)n2Cc2ccccc2)C1=O", "note": "(stereo not shown)", "IC50": 5.85}
{"smiles": "O=C(O)c1nn2c(c1OCc1ccccc1)C(=O)NCC2", "IC50": 0.532}
{"smiles": "O=C(O)c1nn2c(c1O)C(=O)NCC2Cc1ccccc1", "note": "(stereo not shown)", "IC50": 35.1}
{"smiles": "CN1CC(Cc2ccccc2)n2nc(C(=O)O)c(O)c2C1=O", "note": "(stereo not shown)", "IC50": 25.5}
{"smiles": "CC(C)N1CC(Cc2ccccc2)n2nc(C(=O)O)c(O)c2C1=O", "note": "(stereo not shown)", "IC50": 13.2}
